Experimental data as given in patent US7638512B2, “Phenylaminopropanol derivatives and methods of their use” (Wyeth, priority 2004, dated 2009).
Where a name gives a salt, the structure may show the parent alone.

These molecules were tested against T1, human hNET (Homo sapiens, UniProt P23975) (assay: Norepinephrine (NE) uptake assay). Conditions: 1 μM test compound; MDCK-Net6 cells stably transfected with human hNET; [3H]NE uptake.
T1 construct: expressed in transfected cells
Assay type: cell-based
Method: MDCK-Net6 cells, stably transfected with human hNET (Pacholczyk, T., R. D. Blakely, and S. G. Amara, Nature, 1991, 350(6316): p. 350-4) were cultured in growth medium containing high glucose DMEM (Gibco, Cat. No. 11995), 10% FBS (dialyzed, heat-inactivated, US Bio-Technologies, Lot FBD1129HI) and 500 µg/ml G418 (Gibco, Cat. No. 10131). Cells were plated at 300,000/T75 flask and cells were split twice weekly. The JAR cell line (human placental choriocarcinoma) was purchased from ATCC (Cat. No. HTB-144). The cells were cultured in growth medium containing RPMI 1640 (Gibco, Cat. No. 72400), 10% FBS (Irvine, Cat. No. 3000), 1% sodium pyruvate (Gibco, Cat. No. 1136) and 0.25% glucose. Cells were plated at 250,000 cells/T75 flask and split twice weekly. For all assays, cells were plated in Wallac 96-well sterile plates (PerkinElmer, Cat. No. 3983498).
On day 1, cells were plated at 3,000 cells/well in growth medium and maintained in a cell incubator (37° C., 5% CO2). On day 2, growth medium was replaced with 200 μl of assay buffer (25 mM HEPES; 120 mM NaCl; 5 mM KCl; 2.5 mM CaCl2; 1.2 mM MgSO4; 2 mg/ml glucose (pH 7.4, 37° C.)) containing 0.2 mg/ml ascorbic acid and 10 μM pargyline. Plates containing cells with 200 μl of assay buffer were equilibrated for 10 minutes at 37° C. prior to addition of compounds. A stock solution of desipramine was prepared in DMSO (10 mM) and delivered to triplicate wells containing cells for a final test concentration of 1 μM. Data from these wells were used to define non-specific NE uptake (minimum NE uptake). Test compounds were prepared in DMSO (10 mM) and diluted in assay buffer according to test range (1 to 10,000 nM). Twenty-five microliters of assay buffer (maximum NE uptake) or test compound were added directly to triplicate wells containing cells in 200 μl of assay buffer. The cells in assay buffer with test compounds were incubated for 20 minutes at 37° C. To initiate the NE uptake, [^3H]NE diluted in assay buffer (120 nM final assay concentration) was delivered in 25 μl aliquots to each well and the plates were incubated for 5 minutes (37° C.). The reaction was terminated by decanting the supernatant from the plate. The plates containing cells were washed twice with 200 μl assay buffer (37° C.) to remove free radioligand. The plates were then inverted, left to dry for 2 minutes, then reinverted and air-dried for an additional 10 minutes. The cells were lysed in 25 μl of 0.25 N NaOH solution (4° C.), placed on a shake table and vigorously shaken for 5 minutes. After cell lysis, 75 μl of scintillation cocktail was added to each well and the plates were sealed with film tape. The plates were returned to the shake table and vigorously shaken for a minimum of 10 minutes to ensure adequate partitioning of organic and aqueous solutions. The plates were counted in a Wallac Microbeta counter (PerkinElmer) to collect the raw cpm data.
For each experiment, a data stream of cpm values collected from the Wallac Microbeta counter was downloaded to a Microsoft Excel statistical application program. Calculations of EC50 values were made using the transformed-both-sides logistic dose response program written by Wyeth Biometrics Department. The statistical program uses mean cpm values from wells representing maximum binding or uptake (assay buffer) and mean cpm values from wells representing minimum binding or uptake ((1 μM desipramine (hNET) or 1 μM paroxetine (hSERT)). Estimation of the EC50 value was completed on a log scale and the line was fit between the maximum and minimum binding or uptake values. All graphic data representation was generated by normalizing each data point to a mean percent based on the maximum and minimum binding or uptake values. The EC50 values reported from multiple experiments were calculated by pooling the raw data from each experiment and analyzing the pooled data as one experiment.

T1 sequence (P23975 whole entry): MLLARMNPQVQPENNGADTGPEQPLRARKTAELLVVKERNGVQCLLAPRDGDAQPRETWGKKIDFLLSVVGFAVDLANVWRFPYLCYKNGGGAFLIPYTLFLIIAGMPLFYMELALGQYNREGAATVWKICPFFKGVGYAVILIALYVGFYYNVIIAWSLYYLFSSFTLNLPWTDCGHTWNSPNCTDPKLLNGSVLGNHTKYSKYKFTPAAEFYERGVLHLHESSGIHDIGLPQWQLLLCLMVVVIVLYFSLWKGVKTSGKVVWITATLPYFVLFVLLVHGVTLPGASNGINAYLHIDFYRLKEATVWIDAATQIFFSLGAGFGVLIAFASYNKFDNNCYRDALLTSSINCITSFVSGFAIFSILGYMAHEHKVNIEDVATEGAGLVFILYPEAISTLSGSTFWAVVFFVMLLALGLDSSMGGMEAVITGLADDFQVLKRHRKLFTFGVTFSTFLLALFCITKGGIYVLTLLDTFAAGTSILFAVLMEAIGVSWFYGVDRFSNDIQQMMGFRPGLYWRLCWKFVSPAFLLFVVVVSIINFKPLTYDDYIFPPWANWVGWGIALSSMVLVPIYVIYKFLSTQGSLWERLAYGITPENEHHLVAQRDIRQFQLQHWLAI

inhibition at 1 µM [%]	Structure (SMILES)
51.7	CNC[C@@H](O)[C@H](c1cccc(F)c1)N1C[C@H](c2ccccc2)Oc2ccccc21 (single isomer, unassigned) [Example 21, hydrochloride]
95	CNC[C@@H](O)[C@H](c1cccc(F)c1)N1CC(c2ccccc2)Oc2ccccc21 (stereo partly drawn) [Example 19, (1S,2R)-1-(3-fluorophenyl)-3-(methylamino)-1-(2-phenyl-2,3-dihydro-4H-1,4-benzoxazin-4-yl)propan-2-ol hydrochloride]
3.4	CNC[C@@H](O)[C@H](c1ccccc1)N1CCOc2ccc(C)cc21 (racemic) [Example 12, (1RS,2SR)-3-(methylamino)-1-(6-methyl-2,3-dihydro-4H-1,4-benzoxazin-4-yl)-1-phenylpropan-2-ol hydrochloride]
46.2	CNC[C@@H](O)[C@H](c1ccccc1)N1CCN(C)c2ccccc21 (racemic) [Example 4, (1SR,2RS)-3-(methylamino)-1-(4-methyl-3,4-dihydroquinoxalin-1(2H)-yl)-1-phenylpropan-2-ol hydrochloride]
38.6	CNC[C@@H](O)[C@H](c1ccccc1)N1CCOc2ccc(Cl)cc21 (single isomer, unassigned) [Example 13, hydrochloride]
60.6	CNC[C@@H](O)[C@H](c1ccccc1)N1CCOc2ccc(Cl)cc21 (racemic) [Example 11, (1RS,2SR)-1-(6-chloro-2,3-dihydro-4H-1,4-benzoxazin-4-yl)-3-(methylamino)-1-phenylpropan-2-ol hydrochloride]
12.5	CNC[C@@H](O)[C@H](c1cc(F)cc(F)c1)N1CCOc2ccc(Cl)cc21 [Example 8, (1S,2R)-1-(6-chloro-2,3-dihydro-4H-1,4-benzoxazin-4-yl)-1-(3,5-difluorophenyl)-3-(methylamino)propan-2-ol hydrochloride]
9.3	CNC[C@@H](O)[C@H](c1ccccc1)N1CC(C)(C)Oc2ccccc21 [Example 17, (1S,2R)-1-(2,2-dimethyl-2,3-dihydro-4H-1,4-benzoxazin-4-yl)-3-(methylamino)-1-phenylpropan-2-ol hydrochloride]
10	CNC[C@@H](O)[C@H](c1cccc(F)c1)N1CC(C)(C)Oc2ccccc21 [Example 16, (1S,2R)-1-(2,2-dimethyl-2,3-dihydro-4H-1,4-benzoxazin-4-yl)-1-(3-fluorophenyl)-3-(methylamino)propan-2-ol hydrochloride]
97.2	CNC[C@@H](O)[C@H](c1cccc(F)c1)N1C[C@@H](c2ccccc2)Oc2ccccc21 (single isomer, unassigned) [Example 20, hydrochloride]
41.5	CNC[C@H](O)[C@@H](c1ccccc1)N1CCOc2ccc(Cl)cc21 (single isomer, unassigned) [Example 14, hydrochloride]
33.7	CNC[C@@H](O)[C@H](c1ccccc1)N1CCOc2ccccc21 (racemic) [Example 2, (1RS,2SR)-1-(2,3-dihydro-4H-1,4-benzoxazin-4-yl)-3-(methylamino)-1-phenylpropan-2-ol dihydrochloride]
53.9	CNC[C@@H](O)[C@H](c1cccc(F)c1)N1CC(C)Oc2ccccc21 (stereo partly drawn) [Example 9, (1S,2R)-1-(3-fluorophenyl)-3-(methylamino)-1-(2-methyl-2,3-dihydro-4H-1,4-benzoxazin-4-yl)propan-2-ol hydrochloride]
41.4	CNC[C@@H](O)[C@H](c1cccc(F)c1)N1CCOc2ccc(Cl)cc21 [Example 15, (1S,2R)-1-(6-chloro-2,3-dihydro-4H-1,4-benzoxazin-4-yl)-1-(3-fluorophenyl)-3-(methylamino)propan-2-ol hydrochloride]
52.9	CNC[C@@H](O)[C@H](c1ccccc1)N1CCN(CC(F)(F)F)c2ccccc21 (racemic) [Example 5, (1SR,2RS)-3-(methylamino)-1-phenyl-1-[4-(2,2,2-trifluoroethyl)-3,4-dihydroquinoxalin-1(2H)-yl]propan-2-ol hydrochloride]
90.4	CNC[C@@H](O)[C@H](c1cccc(F)c1)N1CCSc2ccccc21 [Example 18, (1S,2R)-1-(2,3-dihydro-4H-1,4-benzothiazin-4-yl)-1-(3-fluorophenyl)-3-(methylamino)propan-2-ol hydrochloride]
